In US6358885B1, “Substituted phenylheterocyclic herbicides” (Mississippi State University, priority 1992, dated 2002):

Experiments:
Assay in all cases: Test B preemergence/postemergence greenhouse plant response rating 0 to 10
corn = assay type: in vivo, Zea mays; conditions: for Plant response rating, Corn: 0 to 10 scale
Method in brief: (§1)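 Test chemicals were sprayed onto freshly planted seed and, concurrently, onto young plants between the one and four leaf stage. After a twelve- to sixteen-day greenhouse period, each species was visually compared with untreated controls.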

wild oat = assay type: in vivo, Avena fatua; conditions: for Plant response rating, Wild oat: 0 to 10 scale
Method in brief: as §1

morningglory = assay type: in vivo, Ipomoea hederacea; conditions: for Plant response rating, Morningglory: 0 to 10 scale
Method in brief: as §1

barley = assay type: in vivo, Hordeum vulgare; conditions: for Plant response rating, Barley: 0 to 10 scale
Method in brief: as §1

rape = assay type: in vivo, Brassica napus; conditions: for Plant response rating, Rape: 0 to 10 scale
Method in brief: as §1

cotton = assay type: in vivo, Gossypium hirsutum; conditions: for Plant response rating, Cotton: 0 to 10 scale
Method in brief: as §1

purple nutsedge = assay type: in vivo, Cyperus rotundus; conditions: for Plant response rating, Nutsedge: 0 to 10 scale
Method in brief: as §1

blackgrass = assay type: in vivo, Alopecurus myosuroides; conditions: for Plant response rating, Blackgrass: 0 to 10 scale
Method in brief: as §1

lambsquarters = assay type: in vivo, Chenopodium album; conditions: for Plant response rating, Lambsquarter: 0 to 10 scale
Method in brief: as §1

cheatgrass = assay type: in vivo, Bromus secalinus; conditions: for Plant response rating, Cheatgrass: 0 to 10 scale
Method in brief: as §1

giant foxtail = assay type: in vivo, Setaria faberii; conditions: for Plant response rating, Giant foxtail: 0 to 10 scale
Method in brief: as §1

sugar beet = assay type: in vivo, Beta vulgaris; conditions: for Plant response rating, Sugar beet: 0 to 10 scale
Method in brief: as §1

wild buckwheat = assay type: in vivo, Polygonum convolvulus; conditions: for Plant response rating, Wild buckwheat: 0 to 10 scale
Method in brief: as §1

chickweed = assay type: in vivo, Stellaria media; conditions: for Plant response rating, Chickweed: 0 to 10 scale
Method in brief: as §1

bedstraw = assay type: in vivo, Galium aparine; conditions: for Plant response rating, Bedstraw: 0 to 10 scale
Method in brief: as §1

barnyardgrass = assay type: in vivo, Echinochloa crus-galli; conditions: for Plant response rating, Barnyardgrass: 0 to 10 scale
Method in brief: as §1

cocklebur = assay type: in vivo, Xanthium pensylvanicum; conditions: for Plant response rating, Cocklebur: Rate 50 g/ha, 0 to 10 scale
Method in brief: as §1

wheat = assay type: in vivo, Triticum aestivum; conditions: for Plant response rating, Wheat: 0 to 10 scale
Method in brief: as §1

rice = assay type: in vivo, Oryza sativa; conditions: for Plant response rating, Rice: 0 to 10 scale
Method in brief: as §1

crabgrass = assay type: in vivo, Digitaria spp.; conditions: for Plant response rating, Crabgrass: 0 to 10 scale
Method in brief: as §1

sorghum = assay type: in vivo, Sorghum bicolor; conditions: for Plant response rating, Sorghum: 0 to 10 scale
Method in brief: as §1

soybean = assay type: in vivo, Glycine max; conditions: for Plant response rating, Soybean: 0 to 10 scale
Method in brief: as §1

velvetleaf = assay type: in vivo, Abutilon theophrasti; conditions: for Plant response rating, Velvetleaf: 0 to 10 scale
Method in brief: as §1

`FCCCOc1cc(-c2nn3c(c2Cl)CCCC3)c(F)cc1Cl` [Compound 79] was tested, and the “Plant response rating, Corn” value (corn; POSTEMERGENCE, Rate 50 g/ha) was 3, the “Plant response rating, Corn” value (corn; PREEMERGENCE, Rate 50 g/ha) was 0 and the “Plant response rating (0 to 10 scale), Corn” value (corn; PREEMERGENCE, Rate 200 g/ha) was 0. For the same compound, the “Plant response rating, Corn” value (corn; Rate 200 g/ha, POSTEMERGENCE) was 5, the “Plant response rating, Wild oat” value (wild oat; POSTEMERGENCE, Rate 50 g/ha) was 4 and the “Plant response rating, Wild oat” value (wild oat; PREEMERGENCE, Rate 50 g/ha) was 3. For the same compound, the “Plant response rating (0 to 10 scale), Wild oat” value (wild oat; PREEMERGENCE, Rate 200 g/ha) was 6, the “Plant response rating, Wild oat” value (wild oat; Rate 200 g/ha, POSTEMERGENCE) was 5 and the “Plant response rating, Morningglory” value (morningglory; POSTEMERGENCE, Rate 50 g/ha) was 10. The “Plant response rating, Morningglory” value (morningglory; PREEMERGENCE, Rate 50 g/ha) was 0, the “Plant response rating (0 to 10 scale), Morningglory” value (morningglory; PREEMERGENCE, Rate 200 g/ha) was 7 and the “Plant response rating, Morningglory” value (morningglory; Rate 200 g/ha, POSTEMERGENCE) was 10. For the same compound, the “Plant response rating, Barley” value (barley; POSTEMERGENCE, Rate 50 g/ha) was 4, the “Plant response rating, Barley” value (barley; PREEMERGENCE, Rate 50 g/ha) was 0 and the “Plant response rating (0 to 10 scale), Barley” value (barley; PREEMERGENCE, Rate 200 g/ha) was 2. The “Plant response rating, Barley” value (barley; Rate 200 g/ha, POSTEMERGENCE) was 4, the “Plant response rating, Rape” value (rape; POSTEMERGENCE, Rate 50 g/ha) was 8 and the “Plant response rating, Rape” value (rape; PREEMERGENCE, Rate 50 g/ha) was 3. For the same compound, the “Plant response rating (0 to 10 scale), Rape” value (rape; PREEMERGENCE, Rate 200 g/ha) was 6, the “Plant response rating, Rape” value (rape; Rate 200 g/ha, POSTEMERGENCE) was 9 and the “Plant response rating, Cotton” value (cotton; POSTEMERGENCE, Rate 50 g/ha) was 10. The “Plant response rating, Cotton” value (cotton; PREEMERGENCE, Rate 50 g/ha) was 0, the “Plant response rating (0 to 10 scale), Cotton” value (cotton; PREEMERGENCE, Rate 200 g/ha) was 0 and the “Plant response rating, Cotton” value (cotton; Rate 200 g/ha, POSTEMERGENCE) was 10. The “Plant response rating, Nutsedge” value (purple nutsedge; POSTEMERGENCE, Rate 50 g/ha) was 0, the “Plant response rating, Nutsedge” value (purple nutsedge; PREEMERGENCE, Rate 50 g/ha) was 0 and the “Plant response rating (0 to 10 scale), Nutsedge” value (purple nutsedge; PREEMERGENCE, Rate 200 g/ha) was 0. For the same compound, the “Plant response rating, Nutsedge” value (purple nutsedge; Rate 200 g/ha, POSTEMERGENCE) was 0, the “Plant response rating, Blackgrass” value (blackgrass; POSTEMERGENCE, Rate 50 g/ha) was 3 and the “Plant response rating, Blackgrass” value (blackgrass; PREEMERGENCE, Rate 50 g/ha) was 1. The “Plant response rating (0 to 10 scale), Blackgrass” value (blackgrass; PREEMERGENCE, Rate 200 g/ha) was 5, the “Plant response rating, Blackgrass” value (blackgrass; Rate 200 g/ha, POSTEMERGENCE) was 5 and the “Plant response rating, Lambsquarter” value (lambsquarters; POSTEMERGENCE, Rate 50 g/ha) was 9. For the same compound, the “Plant response rating, Lambsquarter” value (lambsquarters; PREEMERGENCE, Rate 50 g/ha) was 9, the “Plant response rating (0 to 10 scale), Lambsquarter” value (lambsquarters; PREEMERGENCE, Rate 200 g/ha) was 10 and the “Plant response rating, Lambsquarter” value (lambsquarters; Rate 200 g/ha, POSTEMERGENCE) was 10. The “Plant response rating, Cheatgrass” value (cheatgrass; POSTEMERGENCE, Rate 50 g/ha) was 3, the “Plant response rating, Cheatgrass” value (cheatgrass; PREEMERGENCE, Rate 50 g/ha) was 2 and the “Plant response rating (0 to 10 scale), Cheatgrass” value (cheatgrass; PREEMERGENCE, Rate 200 g/ha) was 4. The “Plant response rating, Cheatgrass” value (cheatgrass; Rate 200 g/ha, POSTEMERGENCE) was 4, the “Plant response rating, Giant foxtail” value (giant foxtail; POSTEMERGENCE, Rate 50 g/ha) was 4 and the “Plant response rating, Giant foxtail” value (giant foxtail; PREEMERGENCE, Rate 50 g/ha) was 3. The “Plant response rating (0 to 10 scale), Giant foxtail” value (giant foxtail; PREEMERGENCE, Rate 200 g/ha) was 9, the “Plant response rating, Giant foxtail” value (giant foxtail; Rate 200 g/ha, POSTEMERGENCE) was 6 and the “Plant response rating, Sugar beet” value (sugar beet; POSTEMERGENCE, Rate 50 g/ha) was 10. For the same compound, the “Plant response rating, Sugar beet” value (sugar beet; PREEMERGENCE, Rate 50 g/ha) was 9, the “Plant response rating (0 to 10 scale), Sugar beet” value (sugar beet; PREEMERGENCE, Rate 200 g/ha) was 10 and the “Plant response rating, Sugar beet” value (sugar beet; Rate 200 g/ha, POSTEMERGENCE) was 10. For the same compound, the “Plant response rating, Wild buckwheat” value (wild buckwheat; POSTEMERGENCE, Rate 50 g/ha) was 10, the “Plant response rating, Wild buckwheat” value (wild buckwheat; PREEMERGENCE, Rate 50 g/ha) was 0 and the “Plant response rating (0 to 10 scale), Wild buckwheat” value (wild buckwheat; PREEMERGENCE, Rate 200 g/ha) was 9. For the same compound, the “Plant response rating, Wild buckwheat” value (wild buckwheat; Rate 200 g/ha, POSTEMERGENCE) was 10, the “Plant response rating, Chickweed” value (chickweed; POSTEMERGENCE, Rate 50 g/ha) was 4 and the “Plant response rating, Chickweed” value (chickweed; PREEMERGENCE, Rate 50 g/ha) was 0. The “Plant response rating (0 to 10 scale), Chickweed” value (chickweed; PREEMERGENCE, Rate 200 g/ha) was 3, the “Plant response rating, Chickweed” value (chickweed; Rate 200 g/ha, POSTEMERGENCE) was 5 and the “Plant response rating, Bedstraw” value (bedstraw; POSTEMERGENCE, Rate 50 g/ha) was 5. For the same compound, the “Plant response rating, Bedstraw” value (bedstraw; PREEMERGENCE, Rate 50 g/ha) was 2, the “Plant response rating (0 to 10 scale), Bedstraw” value (bedstraw; PREEMERGENCE, Rate 200 g/ha) was 7 and the “Plant response rating, Bedstraw” value (bedstraw; Rate 200 g/ha, POSTEMERGENCE) was 7. For the same compound, the “Plant response rating, Barnyardgrass” value (barnyardgrass; POSTEMERGENCE, Rate 50 g/ha) was 4, the “Plant response rating, Barnyardgrass” value (barnyardgrass; PREEMERGENCE, Rate 50 g/ha) was 3 and the “Plant response rating (0 to 10 scale), Barnyardgrass” value (barnyardgrass; PREEMERGENCE, Rate 200 g/ha) was 6. The “Plant response rating, Barnyardgrass” value (barnyardgrass; Rate 200 g/ha, POSTEMERGENCE) was 7, the “Plant response rating, Cocklebur” value (cocklebur; POSTEMERGENCE) was 8 and the “Plant response rating, Cocklebur” value (cocklebur; PREEMERGENCE) was 0. For the same compound, the “Plant response rating (0 to 10 scale), Cocklebur” value (cocklebur; PREEMERGENCE, Rate 200 g/ha) was 6, the “Plant response rating, Wheat” value (wheat; POSTEMERGENCE, Rate 50 g/ha) was 5 and the “Plant response rating, Wheat” value (wheat; PREEMERGENCE, Rate 50 g/ha) was 0. The “Plant response rating (0 to 10 scale), Wheat” value (wheat; PREEMERGENCE, Rate 200 g/ha) was 2, the “Plant response rating, Wheat” value (wheat; Rate 200 g/ha, POSTEMERGENCE) was 6 and the “Plant response rating, Rice” value (rice; POSTEMERGENCE, Rate 50 g/ha) was 5. For the same compound, the “Plant response rating, Rice” value (rice; PREEMERGENCE, Rate 50 g/ha) was 0, the “Plant response rating (0 to 10 scale), Rice” value (rice; PREEMERGENCE, Rate 200 g/ha) was 0 and the “Plant response rating, Rice” value (rice; Rate 200 g/ha, POSTEMERGENCE) was 6. For the same compound, the “Plant response rating, Crabgrass” value (crabgrass; POSTEMERGENCE, Rate 50 g/ha) was 3, the “Plant response rating, Crabgrass” value (crabgrass; PREEMERGENCE, Rate 50 g/ha) was 4 and the “Plant response rating (0 to 10 scale), Crabgrass” value (crabgrass; PREEMERGENCE, Rate 200 g/ha) was 6. The “Plant response rating, Crabgrass” value (crabgrass; Rate 200 g/ha, POSTEMERGENCE) was 5, the “Plant response rating, Sorghum” value (sorghum; POSTEMERGENCE, Rate 50 g/ha) was 6 and the “Plant response rating, Sorghum” value (sorghum; PREEMERGENCE, Rate 50 g/ha) was 0. The “Plant response rating (0 to 10 scale), Sorghum” value (sorghum; PREEMERGENCE, Rate 200 g/ha) was 0, the “Plant response rating, Sorghum” value (sorghum; Rate 200 g/ha, POSTEMERGENCE) was 7 and the “Plant response rating, Soybean” value (soybean; POSTEMERGENCE, Rate 50 g/ha) was 7. For the same compound, the “Plant response rating, Soybean” value (soybean; PREEMERGENCE, Rate 50 g/ha) was 0, the “Plant response rating (0 to 10 scale), Soybean” value (soybean; PREEMERGENCE, Rate 200 g/ha) was 0 and the “Plant response rating, Soybean” value (soybean; Rate 200 g/ha, POSTEMERGENCE) was 8. The “Plant response rating, Velvetleaf” value (velvetleaf; POSTEMERGENCE, Rate 50 g/ha) was 8, the “Plant response rating, Velvetleaf” value (velvetleaf; PREEMERGENCE, Rate 50 g/ha) was 5 and the “Plant response rating (0 to 10 scale), Velvetleaf” value (velvetleaf; PREEMERGENCE, Rate 200 g/ha) was 10. For the same compound, the “Plant response rating, Velvetleaf” value (velvetleaf; Rate 200 g/ha, POSTEMERGENCE) was 10.
